We go through one compound from patent US20190136195A1, “COMPOSITION FOR TREATING TENDONITIS AND MANUFACTURE THEREOF” (Gwo Xi Stem Cell Applied Technology Co., Ltd., priority 2016, published 2019).

Holding throughout (type): cell-based, Human
In one data set the test system is COL1A1. Briefly: mRNA expression of tendon healing factors in hADSC: COL1A1. Conditions: hADSC at 1×10^5 cell/ml, 2.5 μg/ml, 96 or 168 hours. The protocol: (§1) 20 ml of 1.0×10^5 or 0.2×10^5 cells/ml hADSCs in DMEM medium (10% fetal bovine serum, 1% L-glutamine, 1% non-essential amino acid (NEAA), and 1% sodium pyruvate) was placed on a 15-cm dish, mixed with 2.5 μg/ml butylidenephthalide, and then incubated at 37° C. in a 5% CO2 incubator for 96 hours. After the medium was removed and replaced with fresh medium, hADSCs was cultured under the same condition as described above until 168 hours.

The test system of a further data set is hADSCs. The data set can be described thus: Cell activity (MTT cell viability) of hADSC with butylidenephthalide. Conditions: 24 and 48 hours. The protocol: hADSCs were seeded on a 96-well plate at a density of 3×10^3 cell/100 μl, and the 96-well plate was incubated at 37° C. in a humidified 5% CO2 atmosphere. After 16 hours, butylidenephthalide of various concentrations was added to the 96-well plate and then incubated at 37° C. in a 5% CO2 incubator. After 24 and 48 hours, the cell viability was determined. In cell viability assay, 100 μl of 10% MTT reagent was added to each well and then incubated in an incubator for 2 hours. 150 μl DMSO was added and mixed for 15 minutes. The absorbance (OD) of the aqueous solution was determined at 570 nm. According to FIG. 1, butylidenephthalide would not affect the cell activity if its concentration was blow 5 μg/ml. Therefore, 2.5 μg/ml of butylidenephthalide was selected to be used in the following experiments.

A further data set relates to SCX. The data set can be described thus: mRNA expression of tendon healing factors in hADSC: SCX. The following applies: hADSC at 1×10^5 cell/ml, 2.5 μg/ml, 96 or 168 hours. The protocol:
as §1

The test system of data set [1] is COL1 protein (collagen, COL1A1). Briefly: Protein expression of COL1A1 in hADSC. The following applies: hADSC at 1×10^5 cell/ml, 2.5 μg/ml, 96 or 168 hours. The protocol:
as §1

Entries after “also recorded” stand apart in the source; their conditions may differ. Bounds are passed on as bounds.

As to `CCCC=C1OC(=O)c2ccccc21` [butylidenephthalide, Butylidenephthalide], the “COL1A1 mRNA expression” value in the data set with COL1A1 is “increased, significantly; also recorded: significant increase”. For the same compound, the “concentration that would not affect the cell activity (MTT)” value in the data set on hADSCs was below 5000 ng/mL. Further, the “SCX mRNA expression” value with SCX was “increased, significantly; also recorded: significant increase”. For the same compound, in data set [1], the COL1A1 protein expression result was “increased, significantly; also recorded: significant increase”.
